Measured values: patent publication US20250263370A1 (Tay Therapeutics Limited, priority 2022, published 2025)
Values joined by “and” are separate entries in the source; they are usually repeats but may differ in a detail not shown here. Identical values can stand only once.

Tested on: collagen-induced arthritis
Assay: Collagen-induced arthritis (CIA) model in rats: body weight, paw volume, clinical scores, clinical observations; for Average detailed clinical score, left hind limb: key of the grades not given here; for Average detailed clinical score, right hind limb: key of the grades not given here; for Detailed Clinical Scores, left forelimb: key of the grades not given here; for Detailed Clinical Scores, left hind limb: key of the grades not given here; for Detailed Clinical Scores, right forelimb: key of the grades not given here; for Detailed Clinical Scores, right hind limb: key of the grades not given here; for Detailed Clinical Scores, score: key of the grades not given here; for Detailed Clinical Scores: left forelimb: key of the grades not given here; for Detailed Clinical Scores: left hind limb: key of the grades not given here; for Detailed Clinical Scores: right forelimb: key of the grades not given here; for Detailed Clinical Scores: right hind limb: key of the grades not given here; for Detailed Clinical Scores: score: key of the grades not given here; for Mean overall clinical score ± SD: key of the grades not given here; for overall clinical score: key of the grades not given here
Settings: for Mean animal paw volume ± SD: group mean; for Animal paw volume percent change: individual animals; for Average detailed clinical score, left forelimb / Average detailed clinical score, left hind limb / Average detailed clinical score, right forelimb / Average detailed clinical score, right hind limb / Average detailed clinical score, score / Mean overall clinical score ± SD / Detailed Clinical Scores, left forelimb / Detailed Clinical Scores, left hind limb / Detailed Clinical Scores, right forelimb / Detailed Clinical Scores, right hind limb / Detailed Clinical Scores, score / Overall clinical score / Detailed Clinical Scores: left forelimb / Detailed Clinical Scores: left hind limb / Detailed Clinical Scores: right forelimb / Detailed Clinical Scores: right hind limb / Detailed Clinical Scores: score: CIA rats; for Detailed Clinical Scores, left forelimb / Detailed Clinical Scores, left hind limb / Detailed Clinical Scores, right forelimb / Detailed Clinical Scores, right hind limb / Detailed Clinical Scores, score / Detailed Clinical Scores: left forelimb / Detailed Clinical Scores: left hind limb / Detailed Clinical Scores: right forelimb / Detailed Clinical Scores: right hind limb / Detailed Clinical Scores: score: individual animals ID 1-8; for Overall clinical score: individual animals #1-8
Method: Prior to be randomly placed in treatment groups, animals were weighed, and paw volume was measured. Once randomly assigned to treatment groups, on Day 0, animals in groups 2-9 were immunized by subcutaneous injection at the base of the tail.
The immunization comprised 100 μL of the CFA+Collagen emulsion (prepared according to the method in Experimental Method A). Animals in group one received no immunization. Seven days after the first injection, animals in groups 2-9 received a booster immunization comprising 200 μL of the IFA+Collagen emulsion (prepared according to the method in Experimental Method A).
Starting on Day 0, animals in group 1 and 2 were administered daily doses of the vehicle per os (P.O.) for 21 days. […] The twice daily doses for animals in groups 4-9 were 8 hours apart (e.g., the first dose at 8:00 AM and the second dose at 4:00 PM).
Body weight of all animals was recorded daily for the 21-day period. Blind clinical scores on all four limbs were conducted for all animals in the study. Animals were assessed prior to receiving their first dose of the compound or control, and scores for each limb were combined to a total daily score for each animal. Clinical score assessments were performed on Day 0, 6, 12, 13, 14, 15, 18, 19, and 21 (for a total of 9 daily scores).
Paw volume was recorded for each animal on Day 0, 6, 12, 13, 14, 15, 18, 19, and 21 (for a total of 9 measurements). To measure paw volume, animals were gently held with one hand while the hind paw was placed into a plethysmometer with the other hand. Lipid displacement by the paw was recorded and used to represent paw volume.
All data measured and recorded was analyzed using SPSS 16.0 software. Groups were compared using one-way ANOVA and significance was set at p<0.05.

In the case of CNC(=O)c1cc(C(=O)NC2CC2)cn(Cc2ccccc2)c1=O [GSK620], the “Mean animal paw volume ± SD” value (Day 13, L paw) is reported as 1.38 mL, the “Animal paw volume percent change” value (Day 13, L paw) is reported as 5.12% and 1.52% and 12.65% and −0.73% and 4.01% and 2.25% and 4.56% and 3.33% and the “Mean animal paw volume ± SD” value (Day 13, R paw) is reported as 1.41 mL. The “Animal paw volume percent change” value (Day 13, R paw) was 9.84% and 3.07% and 10.98% and 14.65% and 3.66% and 3.02% and 6.04% and 3.75%, the “Average detailed clinical score, left forelimb” value (Day 13) was 0.00 and the “Average detailed clinical score, left hind limb” value (Day 13) was 0.00. The “Average detailed clinical score, right forelimb” value (Day 13) was 0.00, the “Average detailed clinical score, right hind limb” value (Day 13) was 0.13 and the “Average detailed clinical score, score” value (Day 13) was 0.13. For the same compound, the “Mean overall clinical score ± SD” value (Day 13) was 0 ± 0, the “Detailed Clinical Scores, left forelimb” value (Day 13) was 0 and the “Detailed Clinical Scores, left hind limb” value (Day 13) was 0. The “Detailed Clinical Scores, right forelimb” value (Day 13) was 0, the “Detailed Clinical Scores, right hind limb” value (Day 13) was 0 (7×) and 1 and the “Detailed Clinical Scores, score” value (Day 13) was 0 (7×) and 1. For the same compound, the Overall clinical score (Day 13) was 0 (7×) and 1, the “Mean animal paw volume ± SD” value (Day 14, L paw) was 1.55 mL and the “Animal paw volume percent change” value (Day 14, L paw) was 21.65% and 34.98% and 13.44% and −0.37% and 4.01% and 4.87% and 31.18% and 27.78%. The “Mean animal paw volume ± SD” value (Day 14, R paw) was 1.67 mL, the “Animal paw volume percent change” value (Day 14, R paw) was 37.01% and 14.18% and 12.55% and 54.58% and 4.40% and 3.77% and 49.81% and 36.70% and the “Average detailed clinical score, left forelimb” value (Day 14) was 0.00. The “Average detailed clinical score, left hind limb” value (Day 14) was 0.88, the “Average detailed clinical score, right forelimb” value (Day 14) was 0.00 and the “Average detailed clinical score, right hind limb” value (Day 14) was 1.13. For the same compound, the “Average detailed clinical score, score” value (Day 14) was 2.00, the “Mean overall clinical score ± SD” value (Day 14) was 2 ± 2 and the “Detailed Clinical Scores, left forelimb” value (Day 14) was 0. For the same compound, the “Detailed Clinical Scores, left hind limb” value (Day 14) was 1 and 2 (3×) and 0 (4×), the “Detailed Clinical Scores, right forelimb” value (Day 14) was 0 and the “Detailed Clinical Scores, right hind limb” value (Day 14) was 2 (3×) and 0 (4×) and 3. For the same compound, the “Detailed Clinical Scores, score” value (Day 14) was 3 (2×) and 2 and 0 (3×) and 4 (2×), the Overall clinical score (Day 14) was 3 (2×) and 2 and 0 (3×) and 4 (2×) and the “Mean animal paw volume ± SD” value (Day 15, L paw) was 1.74 mL. The “Animal paw volume percent change” value (Day 15, L paw) was 60.24% and 53.99% and 9.49%, the “Mean animal paw volume ± SD” value (Day 15, R paw) was 1.86 mL and the “Animal paw volume percent change” value (Day 15, R paw) was 61.02% and 59.00% and 7.84%. The “Average detailed clinical score, left forelimb” value (Day 15) was 0.00, the “Average detailed clinical score, left hind limb” value (Day 15) was 1.63 and the “Average detailed clinical score, right forelimb” value (Day 15) was 0.00. The “Average detailed clinical score, right hind limb” value (Day 15) was 2.00, the “Average detailed clinical score, score” value (Day 15) was 3.63 and the “Mean overall clinical score ± SD” value (Day 15) was 4 ± 2. For the same compound, the “Detailed Clinical Scores: left forelimb” value (Day 15) was 0, the “Detailed Clinical Scores: left hind limb” value (Day 15) was 3 (3×) and 0 (2×) and 1 (2×) and 2 and the “Detailed Clinical Scores: right forelimb” value (Day 15) was 0. The “Detailed Clinical Scores: right hind limb” value (Day 15) was 3 (3×) and 0 (2×) and 4 and 1 and 2, the “Detailed Clinical Scores: score” value (Day 15) was 6 (3×) and 0 and 4 (2×) and 1 and 2 and the Overall clinical score (Day 15) was 6 (3×) and 0 and 4 (2×) and 1 and 2. The “Mean animal paw volume ± SD” value (Day 18, L paw) was 2.48 mL, the “Animal paw volume percent change” value (Day 18, L paw) was 113.78% and 92.78% and 88.54% and the “Mean animal paw volume ± SD” value (Day 18, R paw) was 2.35 mL. The “Animal paw volume percent change” value (Day 18, R paw) was 105.91% and 87.36% and 88.63%, the “Average detailed clinical score, left forelimb” value (Day 18) was 0.00 and the “Average detailed clinical score, left hind limb” value (Day 18) was 3.88. For the same compound, the “Average detailed clinical score, right forelimb” value (Day 18) was 0.00, the “Average detailed clinical score, right hind limb” value (Day 18) was 3.38 and the “Average detailed clinical score, score” value (Day 18) was 7.25. The “Mean overall clinical score ± SD” value (Day 18) was 7 ± 1, the “Detailed Clinical Scores: left forelimb” value (Day 18) was 0 and the “Detailed Clinical Scores: left hind limb” value (Day 18) was 4 (7×) and 3. For the same compound, the “Detailed Clinical Scores: right forelimb” value (Day 18) was 0, the “Detailed Clinical Scores: right hind limb” value (Day 18) was 4 (6×) and 0 and 3 and the “Detailed Clinical Scores: score” value (Day 18) was 8 (6×) and 4 and 6. The Overall clinical score (Day 18) was 8 (6×) and 4 and 6, the “Mean animal paw volume ± SD” value (Day 19, L paw) was 2.54 mL and the “Animal paw volume percent change” value (Day 19, L paw) was 112.99% and 92.78%. The “Mean animal paw volume ± SD” value (Day 19, R paw) was 2.36 mL, the “Animal paw volume percent change” value (Day 19, R paw) was 103.54% and 88.12% and the “Average detailed clinical score, left forelimb” value (Day 19) was 0.75. The “Average detailed clinical score, left hind limb” value (Day 19) was 3.63, the “Average detailed clinical score, right forelimb” value (Day 19) was 0.25 and the “Average detailed clinical score, right hind limb” value (Day 19) was 3.00. For the same compound, the “Average detailed clinical score, score” value (Day 19) was 7.63, the “Mean overall clinical score ± SD” value (Day 19) was 8 ± 2 and the “Detailed Clinical Scores: left forelimb” value (Day 19) was 1 (6×) and 0 (2×). The “Detailed Clinical Scores: left hind limb” value (Day 19) was 4 (5×) and 3 (3×), the “Detailed Clinical Scores: right forelimb” value (Day 19) was 0 (6×) and 1 (2×) and the “Detailed Clinical Scores: right hind limb” value (Day 19) was 4 (3×) and 3 (4×) and 0. For the same compound, the “Detailed Clinical Scores: score” value (Day 19) was 9 (2×) and 10 and 6 and 5 and 7 (2×) and 8, the Overall clinical score (Day 19) was 9 (2×) and 10 and 6 and 5 and 7 (2×) and 8 and the “Mean animal paw volume ± SD” value (Day 21, L paw) was 2.53 mL. The “Animal paw volume percent change” value (Day 21, L paw) was 112.99% and 90.49%, the “Mean animal paw volume ± SD” value (Day 21, R paw) was 2.35 mL and the “Animal paw volume percent change” value (Day 21, R paw) was 106.69% and 86.59%. For the same compound, the “Average detailed clinical score, left forelimb” value (Day 21) was 0.88, the “Average detailed clinical score, left hind limb” value (Day 21) was 3.63 and the “Average detailed clinical score, right forelimb” value (Day 21) was 0.25. For the same compound, the “Average detailed clinical score, right hind limb” value (Day 21) was 3.13, the “Average detailed clinical score, score” value (Day 21) was 7.88 and the “Mean overall clinical score ± SD” value (Day 21) was 8 ± 2. For the same compound, the “Detailed Clinical Scores: left forelimb” value (Day 21) was 1 (5×) and 2 and 0 (2×), the “Detailed Clinical Scores: left hind limb” value (Day 21) was 4 (5×) and 3 (3×) and the “Detailed Clinical Scores: right forelimb” value (Day 21) was 0 (6×) and 1 (2×). The “Detailed Clinical Scores: right hind limb” value (Day 21) was 4 (3×) and 3 (4×) and 1, the “Detailed Clinical Scores: score” value (Day 21) was 9 (2×) and 11 and 6 (2×) and 7 (2×) and 8 and the Overall clinical score (Day 21) was 9 (2×) and 11 and 6 (2×) and 7 (2×) and 8.
